The text below walks through data of patent US20230088528A1, “USE OF LIPID IN PREPARATION OF NUCLEIC ACID DELIVERY REAGENT AND RELATED PRODUCT THEREOF” (INSTITUTE OF BASIC MEDICAL SCIENCES CHINESE ACADEMY OF …, priority 2019, published 2023).

Structures can show the parent of a compound that is named as a salt.

Data set [1] can be described thus: Pharmacokinetic study of lipid-nucleic acid mixture, gavage group, relative amount of PGY-sRNA-26 delivered to organs over time. It is filed as in vivo, C57BL/6 male mice. The conditions noted are these: sampled at 3, 6, 9, 12, 24 hrs. The method, then:
(§1) 1 nmol of small RNA (as shown in Table 2) was dissolved in 400 μl of DEPC-treated water in a glass tube, and 10 μl of a corresponding lipid stock solution was added, to give a system containing 100 μg of lipid. The system was well mixed, heated for 15 min in a water bath at 90° C., and then naturally cooled, to obtain a lipid-nucleic acid mixture of the lipid and small RNA.
(§2) The C57BL/6 male mice used in the experiment were purchased from Beijing Vital River Laboratory Animal Technology Co., Ltd., about 6 weeks old, and weighed 20-24 g. They were kept in an SPF animal room of the Animal Center of the Institute of Basic Medical Sciences, Chinese Academy of Medical Sciences. The mice were fasted for 12 hrs before gavage.
(§3) The lipid-nucleic acid mixture was prepared following the method as described in Example 2. The prepared lipid-nucleic acid mixture was orally administered or injected via the tail vein at a dose of 100 μg lipid:1 nmol single-stranded small RNA PGY-sRNA-26 per mouse. The oral dose was half that of the tail vein injection.
(§4) 1) Blank group: Mice (n=6) were given 500 μl of normal saline by gavage, and this group served as a blank control group;
2) Gavage group: Mice (n=15) were given 200 μl of the lipid-nucleic acid mixture prepared in step 2 by gavage.
(§5) At 3 hrs, 6 hrs, 9 hrs, 12 hrs and 24 hrs after administration in the gavage group and the intravenous injection group, 3 mice were taken and the RNA was extracted from each organ according to the method in Example 3.
(§6) The RNA extracted from each organ was reverse transcribed into cDNA according to the method in Example 3.
(§7) A quantitative PCR amplification reaction was performed according to the method in Example 3.
(§8) 3.5. The Relative Expression Level was Calculated by the 2-ΔCt Method.
(§9) FIGS. 46-49 respectively show the results of delivering single-stranded small RNA PGY-sRNA-26 into different target tissues at various time points by gavage using lipids 93, 94, 96, and 100. FIGS. 50-54 respectively show the results of delivering single-stranded small RNA PGY-sRNA-26 into different target tissues at various time points by injection via the tail vein using lipids 94, 96, 98, 100, and 101.

Data set [2] is described as follows: In vivo delivery of lipid-nucleic acid mixture (PGY-sRNA-26) by gavage, relative intake in blood and tissues by RT-qPCR. The arrangement: species or system C57BL/6 male mice. The conditions noted are these: for oral delivery of sRNA single-chain nucleic acid into the blood, and lung, kidney, spleen, heart, and intestinal tissue of mice / oral delivery of sRNA single-chain nucleic acid into the blood, and lung, kidney, spleen, and heart tissues of mice: 100 μg lipid:1 nmol PGY-sRNA-26 per mouse, 12 hrs after gavage, vs free intake group; for number of organs into which nucleic acid is significantly delivered: among the 6 organs in the experiments. The method, then:
The concentration of a lipid solution in chloroform was 10 mg/ml (stock solution), and grouping was performed according to the lipid compound number.
as §1, §2
The lipid-nucleic acid mixture was prepared following the method as described in Example 2. The prepared lipid-nucleic acid mixture was orally administered at a dose of 100 μg lipid:1 nmol single-stranded small RNA PGY-sRNA-26 per mouse.
1) Blank group: Mice (n=4) were given 500 μl of normal saline by gavage, and this group served as a blank control group;
2) Free intake group: Mice (n=4) were given sRNA solution (1 nmol/animal, 500 μl) by direct gavage, and this group served as a negative control group;
3) Lipid treatment group: Mice (n=4) were given 500 μl of the lipid-nucleic acid mixture prepared in step 2 by gavage.
12 hrs after gavage in each group of mice, 500 μl of blood was taken from the eyeball, and 1.5 ml of Trizol Reagent LS (purchased from Invitrogen) was added and mixed well for lysis. The tissue sample was added with 3 ml of Trizol Reagent LS. and homogenized for full lysis, wherein the tissue sample included lung/kidney/spleen/heart/gut. 1 ml of blood or tissue lysate was taken and RNA was extracted according to the following steps.
The blood or tissue lysate was centrifuged at 4° C., and 12,000 rpm for 5 min, the pellet was discarded, and Trizol was transferred to a new centrifuge tube.
Chloroform was added in an amount of 200 μL chloroform/mL Trizol, shaken fully until uniform, and allowed to stand at room temperature for 5 min.
The sample was centrifuged at 4° C., and 12,000 rpm, for 15 min.
The upper aqueous phase was pipetted to another centrifuge tube, and isopropanol was added in an amount of 0.4 mL isopropanol/mL Trizol, mixed well, and allowed to stand at a low temperature for 10-20 min.
The sample was centrifuged at 4° C., and 12,000 rpm, for 15 min, the supernatant was discarded, and the RNA pellet was at the bottom of the tube.
1 mL of 75% ethanol was added, and the centrifuge tube was shaken gently, to suspend the pellet.
The sample was centrifuged at 4° C., and 12,000 rpm, for 10 min, the supernatant was discarded, 1 mL of 75% ethanol was added, and the centrifuge tube was shaken gently, to suspend the pellet.
The sample was centrifuged at 4° C., and 12,000 rpm, for 10 min, the supernatant was discarded, and the sample was air dried at room temperature. The RNA sample was dissolved in 50-100 μL of RNase-free H2O, and the RNA concentration was quantified by determining the OD value.
The sRNA was reversely transcribed into cDNA using a reverse transcription kit (High-Capacity cDNA Reverse Transcription Kits, Applied Biosystems, cat. no. 4368813), following the stem-loop method (see, for example Real-time quantification of microRNAs by stem-loop RT-PCR, Nucleic Acids Res. 2005 Nov. 27; 33(20):e179, incorporated herein by reference). System for reverse transcription: template RNA (200 ng/μL) 10 μL, 10×RT buffer 2.0 μL, 25×dNTP Mix (100 mM) 0.8 μL, U6 RT stem-loop primer 2.0 μL, PGY-sRNA-26 RT stem-loop primer 2.0 μL, MultiScribe™ reverse transcriptase 1.0 μL, RNAase inhibitor 1.0 μL, and nuclease-free water H2O 1.2 μL. […]

Data set [3] is described as follows: Pharmacokinetic study of lipid-nucleic acid mixture, tail vein injection group, relative amount of PGY-sRNA-26 delivered to organs over time. The data set is classed as in vivo, C57BL/6 male mice. To be noted: injection via the tail vein; sampled at 3, 6, 9, 12, 24 hrs. The method, then:
as §1, §2, §3, §4
3) Intravenous injection group: Mice (n=15) were given 100 μl of the lipid-nucleic acid mixture prepared in step 2 by injection via the tail vein.
as §5, §6, §7, §8, §9

Where [4] appears, read: significant difference compared to the control, 100 μg lipid:1 nmol PGY-sRNA-26, 12 hrs.

On to “1-palmitoyl-2-hydroxy-sn-glycero-3-phosphate (sodium salt) [Lipid 96]”, for which, in data set [1], the “time at which amount of nucleic acid delivered into the intestinal tissue reaches a maximum value” came to 3 h and the “time at which amount of nucleic acid delivered into the kidney tissue reaches a maximum value” came out at 3 h. Moreover, in data set [2], the “oral delivery of sRNA single-chain nucleic acid into the blood, and lung, kidney, spleen, heart, and intestinal tissue of mice” value (shortened to “oral delivery … and intestinal tissue of mice”) is listed as “can effectively orally deliver”; the “number of organs into which nucleic acid is significantly delivered” value is reported as “two organs”. In data set [2] (setting [4]), the “oral delivery of sRNA single-stranded nucleic acid into the kidney tissue of mice” value is “can significantly efficiently orally deliver” and the “oral delivery of sRNA single-stranded nucleic acid into the spleen tissue of mice” value is “can significantly efficiently orally deliver”. Also, in data set [3], the “time at which amount of nucleic acid delivered into the brain tissue reaches a maximum value” stood at 6 h, the “time at which amount of nucleic acid delivered into the heart tissue reaches a maximum value” was 9 h, the “time at which amount of nucleic acid delivered into the intestinal tissue reaches a maximum value” amounted to 6 h and the “time at which amount of nucleic acid delivered into the kidney tissue reaches a maximum value” came out at 3 h. In addition, in data set [3], the “time at which amount of nucleic acid delivered into the liver tissue reaches a maximum value” turned out to be 3 h and the “time at which amount of nucleic acid delivered into the lung tissue reaches a maximum value” came to 6 h.

For the compound 1,2-myristin-3-palmitin [Lipid 80], in data set [2], the “oral delivery of sRNA single-chain nucleic acid into the blood, and lung, kidney, spleen, and heart tissues of mice” value (shortened to “oral delivery … and heart tissues of mice”) is given as “can effectively orally deliver”; the “number of organs into which nucleic acid is significantly delivered” value is reported as “two organs”. For the same compound, in data set [2] (setting [4]), the “oral delivery of sRNA single-stranded nucleic acid into the heart tissue of mice” value is “can significantly efficiently orally deliver” and the “oral delivery of sRNA single-stranded nucleic acid into the spleen tissue of mice” value is on record as “can significantly efficiently orally deliver”.

For `CCCCCCCC/C=C\CCCCCCCC(=O)OC[C@H](COP(=O)([O-])OCC[N+](C)(C)C)OC(=O)CCCCCCC/C=C\CCCCCCCC` [Lipid 117, 1,2-bis-(9Z-octadecenoyl)-sn-glycero-3-phosphocholine], the “oral delivery … and intestinal tissue of mice” value in data set [2] is “can effectively orally deliver”.

Take `CCCCCCCC/C=C\CCCCCCCC(=O)OC[C@H](COP(=O)(O)OCCN)OC(=O)CCCCCCC/C=C\CCCCCCCC` [Lipid 72, 1,2-dioleoyl-sn-glycero-3-phosphatidylethanolamine]: the “oral delivery … and heart tissues of mice” value in data set [2] was “can effectively orally deliver”. The “oral delivery of sRNA single-stranded nucleic acid into the lung tissue of mice” value in data set [2] (setting [4]) was “can significantly efficiently orally deliver”.

As to `CCCCCCCCC=CCCCCCCCC(=O)OCC(COC(=O)CCCCCCCCCCCCCCCCCCC)OC(=O)CCCCCCCC=CCCCCCCCC` (stereo not drawn) [Lipid 78, 1,2-olein-3-arachidin], the “oral delivery … and heart tissues of mice” value in data set [2] is “can effectively orally deliver”.

Consider `CCCCCCCC/C=C\CCCCCCCC(=O)O[C@H](COC(=O)CCCCCCCCCCCCCCC)COP(=O)([O-])OCC[N+](C)(C)C` [Lipid 118, 1-palmitoyl-2-oleoyl-sn-glycero-3-phosphatidylcholine], for which the “oral delivery … and intestinal tissue of mice” value in data set [2] is listed as “can effectively orally deliver”.

For the compound “1-O-octadecyl-2-hydroxy-sn-glycero-3-phosphocholine [Lipid 94]”, in data set [1], the “time at which amount of nucleic acid delivered into the brain tissue reaches a maximum value” was 3 h, the “time at which amount of nucleic acid delivered into the gastric tissue reaches a maximum value” turned out to be 3 h, the “time at which amount of nucleic acid delivered into the heart tissue reaches a maximum value” is 3 h and the “time at which amount of nucleic acid delivered into the intestinal tissue reaches a maximum value” was determined as 3 h. Further, in data set [1], the “time at which amount of nucleic acid delivered into the kidney tissue reaches a maximum value” was determined as 9 h, the “time at which amount of nucleic acid delivered into the lung tissue reaches a maximum value” is 9 h and the “time at which amount of nucleic acid delivered into the spleen tissue reaches a maximum value” came out at 3 h. In data set [2], the “oral delivery … and intestinal tissue of mice” value is “can effectively orally deliver”; the “number of organs into which nucleic acid is significantly delivered” value is “two organs”. Further, in data set [2] (setting [4]), the “oral delivery of sRNA single-stranded nucleic acid into the kidney tissue of mice” value was “can significantly efficiently orally deliver” and the “oral delivery of sRNA single-stranded nucleic acid into the lung tissue of mice” value is reported as “can significantly efficiently orally deliver”. In addition, in data set [3], the “time at which amount of nucleic acid delivered into the brain tissue reaches a maximum value” stood at 6 h, the “time at which amount of nucleic acid delivered into the gastric tissue reaches a maximum value” was 3 h, the “time at which amount of nucleic acid delivered into the intestinal tissue reaches a maximum value” was 6 h and the “time at which amount of nucleic acid delivered into the kidney tissue reaches a maximum value” is 9 h. Further, the “time at which amount of nucleic acid delivered into the spleen tissue reaches a maximum value” in data set [3] is 6 h.

1,2-stearin-3-olein [Lipid 77]: the “oral delivery … and heart tissues of mice” value in data set [2] is given as “can effectively orally deliver”. Moreover, the “oral delivery of sRNA single-stranded nucleic acid into the spleen tissue of mice” value in data set [2] (setting [4]) was “can significantly efficiently orally deliver”.

Turning to `CCCCCCCC/C=C\CCCCCCCC(=O)O[C@H](COC(=O)CCCCCCCCCCCCCCC)COP(=O)([O-])OCC[N+](C)(C)C` [Lipid 86, 1-palmitoyl-2-oleoyl-sn-glycero-3-phosphocholine], the “oral delivery … and intestinal tissue of mice” value in data set [2] is “can effectively orally deliver”.

As to “N-stearoyl-D-erythro-sphingosylphosphocholine [Lipid 104]”, the “oral delivery … and intestinal tissue of mice” value in data set [2] is “can effectively orally deliver”. Also, the “oral delivery of sRNA single-stranded nucleic acid into the blood of mice” value in data set [2] (setting [4]) is “can significantly efficiently orally deliver”.

In the case of `CCCCCCCCCCCCCCCC(=O)OC[C@H](COP(=O)(O)O[C@H]1C(O)C(O)C(O)[C@@H](O)C1O)OC(=O)CCCCCCCCCCCCCCC` (stereo partly drawn) [Lipid 109, 1,2-dipalmitoyl-sn-glycero-3-phospho-(l′-myo-inositol) (ammonium salt)], the “oral delivery … and intestinal tissue of mice” value in data set [2] is reported as “can effectively orally deliver”.

As for `CCCCCCCC/C=C\CCCCCCCCCCCCCC(=O)N[C@@H](CO)[C@H](O)/C=C/CCCCCCCCCCCCC` [Lipid 91, N-nervonoyl-D-erythro-sphingosine], in data set [2], the “oral delivery … and intestinal tissue of mice” value is “can effectively orally deliver”. The “oral delivery of sRNA single-stranded nucleic acid into the kidney tissue of mice” value in data set [2] (setting [4]) was “can significantly efficiently orally deliver”.
